In PMC7714071, “Interaction of amyloid beta with humanin and acetylcholinesterase is modulated by ATP” (FEBS Open Bio, 2020):

System: Aβ from H1299 cell-conditioned media
Experiment: ELISA, HN (endogenous and exogenously added) and AChE bound to Aβ from H1299 media on 82E1 antibody
Assay type: binding, human
Conditions: H1299 media, Fig. 6B
Procedure: Human NSCLC cell lines, A549 (ATCC CCL‐185) and H1299 (ATCC CRL‐5803), were purchased from the American Type Culture Collection (ATCC, Manassas, VA, USA). Cells were seeded as we reported earlier in 5 mL HyClone Dulbecco's modified Eagle's medium/nutrient mixture F‐12 (DMEM/F12) (GE Healthcare Life Sciences, Pittsburgh, PA, USA), supplemented with 10% Fetalgro bovine growth serum (FBS; RMBIO, Missoula, MT, USA), 50 U·mL^−1 penicillin, and […] streptomycin (Invitrogen, Life Technologies, Carlsbad, CA, USA) in 25‐cm^2 tissue culture flasks, and allowed to grow overnight in an incubator at 37 °C, 95% humidity, and 5% CO2. The cells were counted after trypan blue staining, with a hemocytometer.
ELISAs were carried out as we previously reported. Nunc MaxiSorp 96‐well flat bottom plate (Thermo Fisher) wells were coated with samples as indicated. The plates were incubated overnight at 4 °C on a shaker to allow binding of the samples to the plate wells. After the incubation, the wells were washed 4× with TBST, filled with 400 µL blocking buffer (110 mM KCl, 5 mM NaHCO3, 5 mM MgCl2, 1 mM EGTA, 0.1 mM CaCl2, 20 mM HEPES, 1% BSA, pH 7.4), and incubated with shaking overnight at 4 °C. The wells were then washed 4× with TBST, and 100 µL of sample at the desired concentration was added to each well and incubated with shaking overnight at 4 °C. TBST was then used to wash the wells 4× before proceeding in one of two ways: (a) biotinylated samples were analyzed by adding 100 µL streptavidin–HRP conjugate in TBST (1 : 2500 dilution) to the samples followed by incubation for 3 h at RT on a shaker, or (b) samples without biotin were analyzed by adding 100 µL TBST containing the primary antibody as per the manufacturer's recommendation, incubating for 3 h at RT on a shaker, followed by washing the wells 4× with TBST. […] The reaction was stopped with 100 µL 2 M H2SO4 after incubating at RT for 0.5–15 min, resulting in a yellow color change, measured by absorbance at 450 nm. […] Before analysis, the OD from the data was corrected for nonspecific binding by subtracting the mean background absorbance for the negative controls. […] Statistical analysis was determined by the […] […] Data were expressed as the mean ± SD. […]
Anti‐Aβ‐specific antibodies (82E1) were added (1 : 1000 dilution) to ELISA plate wells (Fig. 6). The wells were blocked, and then, 300 µL of the conditioned media (0.5 µg·µL^−1) of A549 or H1299 cells, 72 h postserum starvation, was added in the absence or presence of increasing HN concentrations, and the HN and AChE bound were detected using the corresponding specific primary antibodies. Fold change relative to controls that included all components but without the primary antibodies was calculated and fit with a nonlinear regression curve using the […] […]

| Molecule | effect of ATP on binding of exogenously added HN to Aβ (0.1 mM, 1 mM ATP (more pronounced at 1 mM)) | effect of ATP on binding of endogenous HN to Aβ (increasing ATP (0.1 mM, 1 mM; more pronounced at 1 mM), 82E1) | HN concentration at which signal begins to level off (exogenous HN) | binding of exogenous HN to Aβ (increasing exogenous HN, 82E1) |
| --- | --- | --- | --- | --- |
| Nc1ncnc2c1ncn2[C@@H]1O[C@H](COP(=O)(O)OP(=O)(O)OP(=O)(O)O)[C@@H](O)[C@H]1O [ATP, Adenosine triphosphate] | decreased binding of exogenously added HN | increased binding of endogenous HN |  |  |
| Humanin [HN] |  |  | around 50 nM | increased binding to Aβ |
